Results from patent publication US20080090873A1, “Sulfonamide derivatives” (priority 2006, published 2008).

Assays:
[1] = target: human adrenergic B2 receptor (Homo sapiens, UniProt P07550); assay: Whole cell luciferase reporter assay of agonist potency in CHO cells expressing the hB2 receptor; assay type: cell-based; settings: 4 h incubation, read-out: EC50 - beta2
Description: Functional Assessment of Agonist Potency and Efficacy Using a Whole Cell Luciferase Reporter Assay in CHO Cells Expressing the hB2 Receptor.
CHO (Chinese Hamster Ovary) cells recombinantly expressing the human adrenergic B2 receptor and transfected with a luciferase enzyme reporter gene were maintained in growth media composed of F12:DMEM (Sigma D6421) containing 10% Foetal Bovine Serum (FBS: Sigma F03921) 10 μg/ml puromycin (Sigma N277698), 0.5 mg/ml Geneticin G418 (Sigma G7034) and 2 mM L-glutamine (Sigma G7513). The cells were kept in sterile conditions at 37° C., in an atmosphere containing 5% CO2.
hB2 Luciferase Assay Protocol
Cells were harvested for assay when they reached 80-90% confluency using enzyme free cell Dissociation Solution (Life technologies 13151-014) incubated with the cells for 5 min at 37° C. in an atmosphere containing 5% CO2. Detached cells were collected in warmed growth media (composition described above), and re-suspended in assay media (F12:DMEM (Sigma D6421) containing 1% Foetal Bovine Serum (FBS: Sigma F03921), 10 μg/ml puromycin (Sigma N277698), 0.5 mg/ml Geneticin G418 (Sigma G7034) and 2 mM L-glutamine (Sigma G7513)) to give a viable cell concentration of 1×10^6 cells/ml. 10 ul of this suspension was added to each well of a tissue culture treated low volume 384 well plate (Greiner788073) and the plate incubated in an atmosphere containing 5% CO2 at 37° C. for 2 h. Concentration ranges of test compounds were prepared in phosphate Buffered Saline containing 0.05% pluronic-F127 (Sigma P2443) and 2.5% DMSO. […] At the end of the incubation period 4 μl of Steady-Glo reagent (Steady-Glo Luciferase assay system (Promega E2520) was added to each well and the plate read immediately in a Leadseeker Plate reader (Amersham Bioscience) using a 660 nm filter. Concentration effect curves were plotted and EC50 values generated using a 4-parameter sigmoid fit using an in-house data analysis programme. Isoprenaline was run in every assay as a reference standard.

[2] = target: human muscarinic M3 receptor (Homo sapiens, UniProt P20309); assay: Whole cell β-lactamase reporter assay of antagonist activity in CHO cells expressing the hM3 receptor; assay type: cell-based; settings: NFAT β-lactamase reporter, inhibition of 80 nM carbamyl choline signal, 4 h
Description: Functional Assessment of Antagonist Activity Using a Whole Cell β-Lactamase Reporter Assay in CHO Cells Expressing the hM3 Receptor.
CHO (Chinese Hamster Ovary) cells recombinantly expressing the human muscarinic M3 receptor were transfected with the NFAT_β-Lac_Zeo plasmid. Cells were grown in DMEM with Glutamax-1, supplemented with 25 mM HEPES (Life Technologies 32430-027), containing 10% FCS (Foetal Calf Serum; Sigma F-7524), […] Sodium pyruvate (Sigma S-8636), NEAA (non-Essential Amino Acids; Invitrogen 11140-035) and 200 μg/ml Zeocin (Invitrogen R250-01).
Cells were harvested for assay when they reached 80-90% confluency using enzyme free cell Dissociation Solution (Life technologies 13151-014) incubated with the cells for 5 min at 37° C. in an atmosphere containing 5% CO2. Detached cells were collected in warmed growth media and centrifuged at 2000 rpm for 10 min, washed in PBS (Phosphate Buffered Saline; Life Technologies 14190-094) and centrifuged again as just described. The cells were re-suspended at 2×10^5 cells/ml in growth medium (composition as described above). 20 μl of this cell suspension was added to each well of a 384 well black clear bottomed plate (Greiner Bio One 781091-PFI). The assay buffer used was PBS supplemented with 0.05% Pluronic F-127 (Sigma 9003-11-6) and 2.5% DMSO. Muscarinic M3 receptor signalling was stimulated using 80 nM carbamyl choline (Aldrich N240-9) incubated with the cells for 4 h at 37° C./5% CO2 and monitored at the end of the incubation period using a Tecan SpectraFluor+ plate reader (λ-excitation 405 nm, emission 450 nm and 503 nm). Compounds under test were added to the assay at the beginning of the 4 h incubation period and compound activity measured as the concentration dependent inhibition of the carbamyl choline induced signal. Inhibition curves were plotted and IC50 values generated using a 4-parameter sigmoid fit and converted to Ki values using the Cheng-Prusoff correction and the KD value for carbamyl choline in the assay.

human adrenergic B2 receptor, sequence (P07550 whole entry): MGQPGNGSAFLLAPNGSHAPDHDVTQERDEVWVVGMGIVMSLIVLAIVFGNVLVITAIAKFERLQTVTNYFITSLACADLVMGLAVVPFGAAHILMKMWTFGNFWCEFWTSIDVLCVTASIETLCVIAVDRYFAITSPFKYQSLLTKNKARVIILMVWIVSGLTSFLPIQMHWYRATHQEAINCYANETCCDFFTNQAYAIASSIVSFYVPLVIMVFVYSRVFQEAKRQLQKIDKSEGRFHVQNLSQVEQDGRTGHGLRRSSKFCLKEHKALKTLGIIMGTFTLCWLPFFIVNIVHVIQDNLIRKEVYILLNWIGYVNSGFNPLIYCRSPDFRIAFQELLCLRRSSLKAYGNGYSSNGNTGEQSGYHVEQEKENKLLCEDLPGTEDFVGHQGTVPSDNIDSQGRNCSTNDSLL
human muscarinic M3 receptor, sequence (P20309 whole entry): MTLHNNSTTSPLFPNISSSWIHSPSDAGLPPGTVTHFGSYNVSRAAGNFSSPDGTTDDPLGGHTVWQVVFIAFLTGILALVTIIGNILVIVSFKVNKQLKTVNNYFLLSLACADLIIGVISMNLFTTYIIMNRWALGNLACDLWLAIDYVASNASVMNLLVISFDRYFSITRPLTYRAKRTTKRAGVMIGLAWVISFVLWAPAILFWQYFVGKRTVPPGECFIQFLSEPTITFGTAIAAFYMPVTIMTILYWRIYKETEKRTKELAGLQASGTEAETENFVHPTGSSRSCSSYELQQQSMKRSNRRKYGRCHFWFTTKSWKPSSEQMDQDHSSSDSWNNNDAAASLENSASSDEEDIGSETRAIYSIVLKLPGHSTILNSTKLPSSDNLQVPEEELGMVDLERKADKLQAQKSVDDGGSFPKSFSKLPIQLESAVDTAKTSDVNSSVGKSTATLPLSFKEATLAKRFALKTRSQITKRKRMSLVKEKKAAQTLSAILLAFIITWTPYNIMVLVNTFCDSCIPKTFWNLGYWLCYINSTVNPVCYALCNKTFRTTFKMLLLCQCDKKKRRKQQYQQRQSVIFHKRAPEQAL

CS(=O)(=O)Nc1cc([C@@H](O)CNCCCCCCCCCN2CCC(OC(=O)Nc3ccccc3-c3ccc(O)c(F)c3)CC2)ccc1O [Example 1, 1-(9-{[(2R)-2-Hydroxy-2-{4-hydroxy-3-[(methylsulfonyl)amino]phenyl}ethyl]amino}nonyl)piperidin-4-yl(3′-fluoro-4′-hydroxybiphenyl-2-yl)carbamate] was tested, and the EC50 [1] was 1.01 nM and the IC50 [2] was 2.93 nM.

Compound CS(=O)(=O)Nc1cc([C@@H](O)CNCCCCCCCCCN2CCC(OC(=O)Nc3ccccc3-c3ccc(O)c(Cl)c3)CC2)ccc1O [Example 2, 1-(9-{[(2R)-2-Hydroxy-2-{4-hydroxy-3-[(methylsulfonyl)amino]phenyl}ethyl]amino}nonyl)piperidin-4-yl(3′-chloro-4′-hydroxybiphenyl-2-yl)carbamate] has an EC50 [1] of 0.133 nM and an IC50 [2] of 0.725 nM.

Work on CS(=O)(=O)Nc1cc([C@@H](O)CNCCCCCCCCCN2CCC(OC(=O)Nc3ccc(F)cc3-c3ccc(O)c(Cl)c3)CC2)ccc1O [Example 3, 1-(9-{[(2R)-2-hydroxy-2-{4-hydroxy-3-[(methylsulfonyl)amino]phenyl}ethyl]amino}nonyl)piperidin-4-yl(3′-chloro-5-fluoro-4′-hydroxybiphenyl-2-yl)carbamate] yielded an EC50 [1] of 0.252 nM and an IC50 [2] of 1.07 nM.
